This is an account of results in patent US12454506B2, “Benzoate derivatives” (ZHEJIANG YUEJIA PHARMACEUTICALS CO., LTD, priority 2022, dated 2025).

A short description of series [1]: Solubility in purified water. It is filed as physicochemical. Conditions: thermodynamic from solid, compound added stepwise to 2 mL until hypersaturated or 2.0 g added. Here is the method: About […] of the compound (A or B or C) to be tested was weighed and placed into a 10 mL sample tube, 2 mL of purified water was added, and the mixture was mixed well. In case of complete dissolution, about […] of the compound to be tested was replenished continuously, and the mixture was mixed well until a hypersaturated state was reached or the compound to be tested was added to 2.0 g. If the compound to be tested was added to […] and is still completely dissolved, the solubility of the compound to be tested in water was recorded as >1.0 g/mL.

The subject of series [2] is inflammatory factor MCP-1 mRNA in H9c2 cells. As to the kind of experiment: TNF-α-induced H9c2 cell inflammation model, MCP-1 mRNA by RT-PCR. It is filed as cell-based, rat. The settings on record: 2 h pre-incubation, 10 ng/mL TNF-α for 1 h, compounds A and C 5/1/0.2 mM, compound B 3/1/0.2 mM, FIG. 8. Here is the method:
The pH value was adjusted to 7.2 with 1 M HCl, and ultrapure water was used to reach the constant volume of 1 L. Finally, the medium was filtered into a sterile container by membrane filtration using a 0.22 m constant-volume filter. (After filtration, the pH value might rise by 0.1 to 0.3 units) • 1.3 Formulation of positive control drug: a dexamethasone solution: […] of dexamethasone was added to 5 mL of DMSO and shaken for dissolution. 1000×solution (10 mM) was obtained. The solution was aliquoted and stored in a refrigerator at −20° C. • 1.4 Formulation of test sample solution: […]
Compound A/compound B/compound C: the test sample was weighed at an appropriate mass and dissolved in DMSO to formulate a solution with a final concentration of 1 M, and the solution was aliquoted and then stored at −20° C. • 1.5 Penicillin/streptomycin biantibiotics solution: 8 million units/vial penicillin plus 40 mL of ultrapure water were mixed well, 1 g/vial streptomycin plus 50 mL of ultrapure water were mixed well, the two mixtures were mixed at a volume ratio of 1:1 to obtain 100×penicillin-streptomycin biantibiotics solution (containing 100,000 units/mL penicillin and 10 mg/mL streptomycin). After filtration through a 0.22 m sterile microfiltration membrane, the solution was aliquoted at 10 mL/tube, and stored in a refrigerator at −20° C. • 1.6 Formulation of buffer solution: • PBS: […] of NaCl, […] of KCl, […] of Na2HPO4 and […] of KH2PO4 were respectively weighed and placed in a 1 L volumetric flask; ultrapure water was added to 900 mL; the pH was adjusted to 7.2 with concentrated hydrochloric acid; and the volume was finalized to 1 L. The mixture was stored at room temperature. • 2. […]

Structures are written as SMILES.

Take `CC[N+]([O-])(CC)CCOC(=O)c1ccccc1OC(C)=O` [compound A]: in series [1], the solubility (in general, the concentration that dissolves in the medium under given conditions) is more than 1000 mg/mL. In series [2], the “inhibition of the elevation of the mRNA level of the inflammatory factor MCP-1” value (“inhibition” below) is “dose-dependent inhibition”.

`CCN(CC)CCOC(=O)c1ccccc1OC(=O)CCl` [compound B] registered a solubility in series [1] of more than 1000 mg/mL. The “inhibition” value in series [2] is reported as “dose-dependent inhibition”.

In series [1], `CCN(CC)CCOC1(C)OC(=O)c2ccccc2O1` (stereo not drawn) [compound C] yielded a solubility of more than 1000 mg/mL. Further, in series [2], the “inhibition” value is on record as “dose-dependent inhibition”.
